Assay results as given in PMC10562414, “GLP-1R signaling neighborhoods associate with the susceptibility to adverse drug reactions of incretin mimetics” (Nature Communications, 2023).
Each block holds one compound with its values, some of them ahead of it.

Tests used:
GLP-1R = GLP-1R (Homo sapiens, UniProt P43220); test: ebBRET pathway activation (effector membrane translocation, 15 pathways) at the plasma membrane (rGFP-CAAX); assay type: cell-based; settings: plasma membrane rGFP-CAAX, HEK293, agonist incubation 0 min, normalized to the highest responding drug, F test P < 0.00625, n=3-6
Sequence of GLP-1R (P43220 24-463): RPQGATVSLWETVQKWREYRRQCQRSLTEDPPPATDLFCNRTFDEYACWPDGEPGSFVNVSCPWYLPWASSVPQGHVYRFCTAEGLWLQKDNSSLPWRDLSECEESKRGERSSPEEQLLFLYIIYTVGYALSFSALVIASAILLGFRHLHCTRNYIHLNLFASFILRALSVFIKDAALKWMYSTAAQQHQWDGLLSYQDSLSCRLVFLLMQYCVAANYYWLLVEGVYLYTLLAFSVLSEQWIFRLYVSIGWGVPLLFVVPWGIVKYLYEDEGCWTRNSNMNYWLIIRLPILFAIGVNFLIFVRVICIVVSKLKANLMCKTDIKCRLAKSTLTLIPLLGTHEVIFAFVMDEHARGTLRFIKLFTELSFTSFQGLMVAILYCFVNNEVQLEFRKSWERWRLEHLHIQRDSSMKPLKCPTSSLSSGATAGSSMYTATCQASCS

[1] = Adverse drug event analysis (FAERS, log likelihood ratio); settings: Supplementary Fig. 21; for proportion, Pancreatic disease: ADR_TERM Pancreatic disease

Efficacy (normalized), GRK2/Gβγ (GLP-1R; GRK2-D110A-RlucII): 0
Efficacy (normalized), Gα13 (GLP-1R; PDZRhoGEF-RlucII): 0
Efficacy (normalized), Gαi1 (GLP-1R; Rap1Gap-RlucII): 0
Efficacy (normalized), Gαi2 (GLP-1R; Rap1Gap-RlucII): 0
Efficacy (normalized), Gαi3 (GLP-1R; Rap1Gap-RlucII): 0
Efficacy (normalized), GαoA (GLP-1R; Rap1Gap-RlucII): 0
Efficacy (normalized), GαoB (GLP-1R; Rap1Gap-RlucII): 0
Efficacy (normalized), Gαz (GLP-1R; Rap1Gap-RlucII): 0
Efficacy (normalized), Gαs (GLP-1R; Rluc8-mGs): 0
Efficacy (normalized), Gα11 (GLP-1R; p63RhoGEF-RlucII): 0
Efficacy (normalized), Gα14 (GLP-1R; p63RhoGEF-RlucII): 0
Efficacy (normalized), Gα15 (GLP-1R; p63RhoGEF-RlucII): 0
Efficacy (normalized), Gαq (GLP-1R; p63RhoGEF-RlucII): 0
Efficacy (normalized), βARR2 (GLP-1R; β-arrestin-2-RlucII): 0
Structure (SMILES): CC[C@H](C)[C@H](NC(=O)[C@H](Cc1ccccc1)NC(=O)[C@H](CCC(=O)O)NC(=O)[C@H](CCCCN)NC(=O)[C@H](C)NC(=O)[C@H](C)NC(=O)[C@H](CCC(N)=O)NC(=O)CNC(=O)[C@H](CCC(=O)O)NC(=O)[C@H](CC(C)C)NC(=O)[C@H](Cc1ccc(O)cc1)NC(=O)[C@H](CO)NC(=O)[C@H](CO)NC(=O)[C@@H](NC(=O)[C@H](CC(=O)O)NC(=O)[C@H](CO)NC(=O)[C@@H](NC(=O)[C@H](Cc1ccccc1)NC(=O)[C@@H](NC(=O)CNC(=O)[C@H](CCC(=O)O)NC(=O)[C@H](C)NC(=O)[C@H](Cc1c[nH]cn1)NC(=O)[C@H](CCCNC(=N)N)NC(=O)[C@H](CCC(=O)O)NC(=O)[C@H](Cc1ccccc1)NC(=O)[C@H](CCC(=O)O)NC(=O)[C@H](CC(=O)O)NC(=O)[C@@H](N)Cc1c[nH]cn1)[C@@H](C)O)[C@@H](C)O)C(C)C)C(=O)N[C@@H](C)C(=O)N[C@@H](Cc1c[nH]c2ccccc12)C(=O)N[C@@H](CC(C)C)C(=O)N[C@H](C(=O)N[C@@H](CCCCN)C(=O)NCC(=O)N[C@@H](CCCNC(=N)N)C(=O)NCC(=O)O)C(C)C [GLP-1 (1-37)]

Structure (SMILES): CCCCCCCCCCCCCCCC(=O)N[C@@H](CCC(=O)NCCCC[C@H](NC(=O)[C@H](C)NC(=O)[C@H](C)NC(=O)[C@H](CCC(N)=O)NC(=O)CNC(=O)[C@H](CCC(=O)O)NC(=O)[C@H](CC(C)C)NC(=O)[C@H](Cc1ccc(O)cc1)NC(=O)[C@H](CO)NC(=O)[C@H](CO)NC(=O)[C@@H](NC(=O)[C@H](CC(=O)O)NC(=O)[C@H](CO)NC(=O)[C@@H](NC(=O)[C@H](Cc1ccccc1)NC(=O)[C@@H](NC(=O)CNC(=O)[C@H](CCC(=O)O)NC(=O)[C@H](C)NC(=O)[C@@H](N)Cc1cnc[nH]1)[C@@H](C)O)[C@@H](C)O)C(C)C)C(=O)N[C@@H](CCC(=O)O)C(=O)N[C@@H](Cc1ccccc1)C(=O)N[C@H](C(=O)N[C@@H](C)C(=O)N[C@@H](Cc1c[nH]c2ccccc12)C(=O)N[C@@H](CC(C)C)C(=O)N[C@H](C(=O)N[C@@H](CCCNC(=N)N)C(=O)NCC(=O)N[C@@H](CCCNC(=N)N)C(=O)NCC(=O)O)C(C)C)[C@@H](C)CC)C(=O)O [Liraglutide]
proportion, Abdominal pain ([1]; ADR_TERM Abdominal pain): 0.02341
proportion, Adenocarcinoma pancreas ([1]; ADR_TERM Adenocarcinoma pancreas): 0.01752
proportion, Eructation ([1]; ADR_TERM Eructation): 0.03019
proportion, Nausea ([1]; ADR_TERM Nausea): 0.07705
proportion, Pancreatic disease ([1]; first group): 0.08817
proportion, Pancreatic disease ([1]; fourth group (r25-r28)): 0.1539
proportion, Pancreatic disease ([1]; second group (r20)): 0.02656
proportion, Pancreatic disease ([1]; third group (r21-r24)): 0.5446
proportion, Vomiting ([1]; ADR_TERM Vomiting): 0.03854
